Data taken from patent US7745479B2, “1,5-substituted indol-2-yl amide derivatives” (Hoffmann-La Roche Inc., priority 2005, dated 2010).

Target: T1, histamine 3 receptor (H3R) (Homo sapiens, UniProt Q9Y5N1)
T1 construct: expressed in transfected cells; host or cells: CHO cells (HR3-CHO cell line), membrane preparation
Assay: Competition binding assay with 3H-(R)α-methylhistamine on membranes of the human HR3-CHO cell line
Conditions: competition with 3H(R)α-Methylhistamine (1 nM), Ki calculated from IC50 by Cheng-Prusoff equation
Method: Binding Assay with ^3H-(R)α-methylhistamine
Saturation binding experiments were performed using HR3-CHO membranes prepared as described in Takahashi, K, Tokita, S., Kotani, H. (2003) J. Pharmacol. Exp. Therapeutics 307, 213-218.
An appropriate amount of membrane (60 to 80 μg protein/well) was incubated with increasing concentrations of ^3H(R)α-Methylhistamine di-hydrochloride (0.10 to 10 nM). Non specific binding was determined using a 200 fold excess of cold (R)α-Methylhistamine dihydrobromide (500 nM final concentration). The incubation was carried out at room temperature (in deep-well plates shaking for three hours). The final volume in each well was 250 μl. […] After harvesting, the plates were dried at 55° C. for 60 min, then scintillation fluid (Microscint 40, 40 microl in each well) was added and the amount of radioactivity on the filter was determined with a Packard top-counter after shaking the plates for two hours at 200 rpm at room temperature. • Binding Buffer: 50 mM Tris-HCl pH 7.4 and 5 mM MgCl2x6H2O pH 7.4. […]
An appropriate amount of protein, e.g. approximately 500 cpm binding of RAMH at Kd, were incubated for 1 hour at room temperature in 250 μl final volume in 96-well plates in presence of ^3H(R)α-Methylhistamine (1 nM final concentration=Kd). Non-specific binding was determined using a 200 fold excess of cold (R)α-Methylhistamine dihydrobromide. […]

T1 sequence (Q9Y5N1 whole entry): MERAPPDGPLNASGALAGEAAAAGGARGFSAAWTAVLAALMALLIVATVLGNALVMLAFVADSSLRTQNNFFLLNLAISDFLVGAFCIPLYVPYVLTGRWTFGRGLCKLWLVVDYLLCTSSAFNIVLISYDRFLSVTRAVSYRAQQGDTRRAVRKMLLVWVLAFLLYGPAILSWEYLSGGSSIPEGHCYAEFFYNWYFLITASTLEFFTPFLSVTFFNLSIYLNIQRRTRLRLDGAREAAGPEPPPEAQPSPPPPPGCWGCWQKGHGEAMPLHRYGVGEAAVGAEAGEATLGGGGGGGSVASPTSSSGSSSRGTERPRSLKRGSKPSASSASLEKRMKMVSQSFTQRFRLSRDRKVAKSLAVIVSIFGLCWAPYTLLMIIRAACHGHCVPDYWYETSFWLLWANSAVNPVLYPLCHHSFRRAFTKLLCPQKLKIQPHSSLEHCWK

Ki: 2 nM
Compound: CC(C)N1CCC(Oc2ccc3c(c2)cc(C(=O)N2CCC(F)(F)CC2)n3-c2ccnc(Cl)c2)CC1 [Example 9, [1-(2-Chloro-pyridin-4-yl)-5-(1-isopropyl-piperidin-4-yloxy)-1H-indol-2-yl]-(4,4-difluoro-piperidin-1-yl)-methanone]
